Assay results as given in patent publication US12274705B2, “Composition comprising CYP4A-inhibiting compound as active ingredient for preventing or treating metabolic diseases” (Korea Basic Science Institute, priority 2018, dated 2025).

Columns and labels:
HepG2 cells [1] = test: Glucose absorption promoting effect (2-NBDG uptake) under ER stress; type: cell-based, human; settings: 5 μM compound
Experimental: HepG2 cells, a human liver cell line, were cultured in a high-glucose DMEM (Dulbecco's modified Eagle's medium, glucose 25 mM) medium in the presence of 10% fetal bovine serum (FBS), and then glucose uptake experiments were performed as follows.
First, HepG2 cells were grown to 1×10^4 cells/well in a 96-well plate (black, clear bottom culture plate) by the above method, and then 5 μM of each compound screened in Example 1 was added and incubated for 6 hours. Here, thapsigargin or tunicamycin, which induces endoplasmic reticulum stress, was added to hepatocytes, and then placed in an incubator at 37° C. for 24 hours to react. After that, insulin and 2-NBDG (2-(N-(7-Nitrobenz-2-oxa-1,3-diazol-4-yl)Amino)-2-Deoxyglucose) were added and reacted in an incubator at 37° C. for 3 hours, and after washing with PBS (phosphate buffered saline), fluorescence was measured with a microplate reader (Excitation: 488 nm, Emission: 508 nm).

HepG2 cells [2] = test: Fat accumulation inhibitory activity in hepatocytes (palmitate, Nile-Red); type: cell-based, human; settings: 5 μM compound; palmitate 72 hours; compared with positive control HET0016
Experimental: After culturing HepG2 cells, a human liver cell line, in a high-concentration DMEM medium (Dulbecco's modified Eagle's medium, glucose 25 mM) containing 10% fetal bovine serum (FBS), an experiment was performed to measure fat accumulation by the following method.
First, HepG2 cells were grown to 5×10^3 cells/well in a 96-well plate (black, clear bottom culture plate) by the above method, and 5 μM of each compound screened in Example 1 was added thereto, followed by incubation for 6 hours. Here, palmitate, a fatty acid that induces fat accumulation in hepatocytes, is added, and then placed in an incubator at 37° C. for 72 hours to react. Thereafter, 4% paraformaldehyde was added and reacted at room temperature for 15 minutes to fix, and then Nile-Red solution was added, light was blocked, and reaction was performed at 37° C. for 10 minutes. After the reaction time, fluorescence was measured with a microplate reader (Excitation: 530 nm, Emission: 635 nm).

CYP4A (CYP4A11) = target: T1, CYP4A (CYP4A11) (Homo sapiens, UniProt Q02928); test: CYP4A activity inhibition, Luciferin-4A luminescence with CYP4A expressing HepG2 cell lysate; type: biochemical; settings: FIG. 1: all compounds at 5 μM; FIG. 2: by concentration; compared with HET0016
T1 construct: expressed in transfected cells; host or cells: HepG2 (human liver cell line), RIPA lysate
T1 sequence (Q02928 5-519): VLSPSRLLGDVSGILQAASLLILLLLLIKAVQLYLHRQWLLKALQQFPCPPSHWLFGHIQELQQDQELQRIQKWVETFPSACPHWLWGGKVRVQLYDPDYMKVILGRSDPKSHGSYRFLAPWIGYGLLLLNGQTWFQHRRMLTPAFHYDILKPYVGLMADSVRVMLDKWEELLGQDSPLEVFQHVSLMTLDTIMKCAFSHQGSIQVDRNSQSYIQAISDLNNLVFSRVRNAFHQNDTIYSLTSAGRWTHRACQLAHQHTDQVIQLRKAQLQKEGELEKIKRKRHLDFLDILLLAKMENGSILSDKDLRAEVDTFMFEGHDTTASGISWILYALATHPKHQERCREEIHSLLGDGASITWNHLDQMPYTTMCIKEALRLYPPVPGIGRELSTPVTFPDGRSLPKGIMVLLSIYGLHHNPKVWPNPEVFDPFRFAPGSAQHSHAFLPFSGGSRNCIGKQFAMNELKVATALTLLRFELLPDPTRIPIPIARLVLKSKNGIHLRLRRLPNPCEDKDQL
Experimental: CYP4A11 DNA (GenBank: S67580.1) was transfected into HepG2 cells, a human liver cell line, and cultured in an incubator for 24 hours so that the protein was expressed. After that, cells were pulverized by adding RIPA buffer (20 mM Tris-HCl (pH 7.5), 150 mM NaCl, 1 mM Na2EDTA, 1 mM EGTA, 1% NP-40, 1% sodium deoxycholate, 2.5 mM sodium pyrophosphate, 1 mM b-glycerophosphate, 1 mM Na3VO4, 1 μg/ml leupeptin) to extract proteins, and then CYP4A activity experiment and compound screening were performed as follows. […]
After putting it in the NADPH Regeneration system (20× sol.A, 100× sol.B in water, Cal. Number: D399, Thermo Fisher SCIENTIFIC), leave it at room temperature for 1 hour to allow the CYP4A reaction to occur sufficiently, and CYP4A reaction is finished by adding Luciferin Detection reagent, and induce a luminescence reaction to occur, and the reaction was carried out at room temperature for 20 minutes. The degree of inhibition of CYP4A activity was measured by comparing the luminescence values from each well with a microplate reader.

HepG2 cells [3] = test: Active oxygen (ROS) scavenging ability under ER stress (H2DCFDA); type: cell-based, human; settings: 5 μM compound; for amount of ROS: Thapsigargin or Tunicamycin; for inhibition of ROS production and removal of ROS: Thapsigargin-treated group, compared with HET0016
Experimental: After culturing HepG2 cells, a human liver cell line, in high-glucose DMEM medium (Dulbecco's modified Eagle's medium, glucose 25 mM) in the presence of 10% fetal bovine serum (FBS), an experiment was performed to measure the ability to remove reactive oxygen species by the following method.
First, HepG2 cells were grown to 1×10^4 cells/well in a 96-well plate (black, clear bottom culture plate) by the above method, and then 5 μM of each compound screened in Example 1 was added and incubated for 6 hours. After adding thapsigargin or tunicamycin to induce endoplasmic reticulum stress, the reaction was put in an incubator for 24 hours. After that, 5 μM H2DCFDA (cell-permeant 2′,7′-dichlorodihydrofluorescein diacetate) was added and reacted for 30 minutes in an incubator at 37° C. Thereafter, after washing with PBS, it was placed in an incubator at 37° C. for 30 minutes and waited for luminescence to occur. Thereafter, fluorescence was measured with a microplate reader (Excitation: 488 nm, Emission: 508 nm).

[4] = Thapsigargin or Tunicamycin, compared with positive control HET0016
[5] = Tunicamycin-treated group, compared with HET0016

Structure (SMILES) | glucose absorption promoting effect (2-NBDG fluorescence) (HepG2 cells [1]; [4]) | glucose absorption promoting effect (2-NBDG fluorescence) (HepG2 cells [1]; [5]) | fat accumulation in liver cells (Nile-Red fluorescence) (HepG2 cells [2]) | CYP4A inhibitory ability (luminescence) (CYP4A (CYP4A11)) | amount of ROS (HepG2 cells [3]) | inhibition of ROS production and removal of ROS (HepG2 cells [3])
CC(=O)Nc1ccc(S(=O)(=O)N2CCN(c3ccnc4cc(Cl)ccc34)CC2)cc1 [#18-1, N-(4-((4-(7-chloroquinolin-4-yl)piperazin-1-yl)sulfonyl)phenyl)acetamide] | significant to the same or higher degree than that of the positive control group (HET0016) | more effective in promoting glucose absorption than the known HET0016 compound | suppressed to a degree similar to that of the positive control group (HET0016) | particularly excellent among the selected compounds | significantly decreased | better inhibition of ROS production and removal of ROS than HET0016
CC(=O)Nc1ccc(S(=O)(=O)N2CCN(c3cc(C)nc4ccccc34)CC2)cc1 [#18-2, N-(4-((4-(2-methylquinolin-4-yl)piperazin-1-yl)sulfonyl)phenyl)acetamide] | significant to the same or higher degree than that of the positive control group (HET0016) | more effective in promoting glucose absorption than the known HET0016 compound | suppressed to a degree similar to that of the positive control group (HET0016) | particularly excellent among the selected compounds | significantly decreased | better inhibition of ROS production and removal of ROS than HET0016
